# Laboratory results as given in the SangsterLogP compilation.
# Test: method code SF-AS, from Novello, F.; Sprague, M. (1967). Structure-activity relations among the thiazole diuretics. Ind. Chim. Belge, 32(Spec.No.), 222-225.
logD (pH 6.5),logD (pH 6.4),SMILES
2.01,–,CCCCCC1=NS(=O)(=O)c2cc(S(N)(=O)=O)c(Cl)cc2N1
1.1,–,NS(=O)(=O)c1cc2c(cc1Cl)N=C(c1ccccc1)NS2(=O)=O
0.15,–,CC1(C)Nc2cc(Cl)c(S(N)(=O)=O)cc2S(=O)(=O)N1
0.3,–,CCC1Nc2cc(Cl)c(S(N)(=O)=O)cc2S(=O)(=O)N1 (stereo not drawn)
-0.62,–,NS(=O)(=O)c1ccc2c(c1)S(=O)(=O)NC=N2
1.27,–,NS(=O)(=O)c1cc2c(cc1Cl)NC(CC1CCCC1)NS2(=O)=O (stereo not drawn)
1.8,–,NS(=O)(=O)c1cc2c(cc1Cl)NC(C1CC3C=CC1C3)NS2(=O)=O (stereo not drawn)
-0.32,–,Cc1cc2c(cc1S(N)(=O)=O)S(=O)(=O)N=CN2
0.03,–,CC1=Nc2cc(Cl)c(S(N)(=O)=O)cc2S(=O)(=O)N1
1.24,–,NS(=O)(=O)c1ccc2c(c1)S(=O)(=O)NC(CC1CCCC1)N2 (stereo not drawn)
1.56,–,CC1CCC2(CC1)Nc1ccc(S(N)(=O)=O)cc1S(=O)(=O)N2 (stereo not drawn)
1,–,NS(=O)(=O)c1cc2c(cc1Cl)NC1(CCCCC1)NS2(=O)=O
-0.52,–,NS(=O)(=O)c1ccc2c(c1)S(=O)(=O)NCN2
0.08,–,CC1Nc2cc(Cl)c(S(N)(=O)=O)cc2S(=O)(=O)N1 (stereo not drawn)
0.36,–,CC(C)(C)C1Nc2cc(Cl)c(S(N)(=O)=O)cc2S(=O)(=O)N1 (stereo not drawn)
1.15,–,CCCC1=Nc2cc(Cl)c(S(N)(=O)=O)cc2S(=O)(=O)N1
0.32,–,NS(=O)(=O)c1cc2c(cc1C(F)(F)F)N=CNS2(=O)=O

logD (pH 6.5),logD (pH 6.4),SMILES
1.05,–,NS(=O)(=O)c1cc2c(cc1C(F)(F)C(F)(F)F)N=CNS2(=O)=O
0.93,–,NS(=O)(=O)c1cc2c(cc1Cl)NC(Cc1ccccc1)NS2(=O)=O (stereo not drawn)
0,–,NS(=O)(=O)c1cc2c(cc1Br)N=CNS2(=O)=O
0.46,–,NS(=O)(=O)c1ccc2c(c1)S(=O)(=O)NC(C(Cl)Cl)N2 (stereo not drawn)
0.08,–,NS(=O)(=O)c1cc2c(cc1[N+](=O)[O-])N=CNS2(=O)=O
–,1.11,NS(=O)(=O)c1cc2c(cc1Cl)NC(CSCc1ccccc1)NS2(=O)=O (stereo not drawn)
0.11,–,NS(=O)(=O)c1cc2c(cc1Cl)NC(CCl)NS2(=O)=O (stereo not drawn)
0.82,–,NS(=O)(=O)c1cc2c(cc1Cl)NC(C(Cl)(Cl)Cl)NS2(=O)=O (stereo not drawn)
0.49,–,NS(=O)(=O)c1cc2c(cc1Cl)NC(C(F)(F)F)NS2(=O)=O (stereo not drawn)
0.2,–,NS(=O)(=O)c1cc2c(cc1[N+](=O)[O-])NCNS2(=O)=O
0.85,–,CC1CCC2(CC1)Nc1cc(Cl)c(S(N)(=O)=O)cc1S(=O)(=O)N2 (stereo not drawn)
1.03,–,NS(=O)(=O)c1ccc2c(c1)S(=O)(=O)NC(Cc1ccccc1)N2 (stereo not drawn)
-0.22,–,Cc1cc2c(cc1S(N)(=O)=O)S(=O)(=O)NCN2
1.56,–,NS(=O)(=O)c1cc2c(cc1Cl)N=C(Cc1ccccc1)NS2(=O)=O
0.08,–,NS(=O)(=O)c1cc2c(cc1Br)NCNS2(=O)=O
-0.29,–,NS(=O)(=O)c1cc2c(cc1F)N=CNS2(=O)=O
